# Measurements from US20250346574A1, “PYRIDINYL SUBSTITUTED OXOISOINDOLINE COMPOUNDS FOR THE TREATMENT OF CANCER” (Bristol-Myers Squibb Company, priority 2021, published 2025).
# Target: Helios (Homo sapiens, UniProt Q96SW2+Q9UKS7)
# Assay: Helios Human T Regulatory Cells Degradation Assay
# Type: cell-based
# Set-up: fluorescently labelled antibodies against Helios in 1× Permeabilization buffer; endogenous in cells; host or cells: cryopreserved human T regulatory cells
# Conditions: cryopreserved human T regulatory cells, incubated 20 hours, Helios-APC antibody staining, flow cytometry; read-out: hTreg Helios DC50
# Description: Cryopreserved human T regulatory cells were thawed in RPMI+10% FBS+20 ng/mL IL-2. After being spun at 1200 rpm for 5 mins, the cells were resuspended in RPMI+10% FBS+20 ng/mL and rested at 37° C. with 5% CO2 for 3 hours. […] Cell cultures were incubated for 20 hours at 37° C. and 5% CO2. In order to facilitate analysis, cell cultures were spun down at 1200 rpm for 5 minutes and the supernatant was discarded using an EL406 plate washer. After washing three times with 70 μL PBS, cell pellets were resuspended in 50 μL of near IR viability staining solution (Life Technologies, Cat #L34975) and incubated for 30 minutes on ice protected from light. Cells were washed three times with 70 μL PBS+0.5% BSA using an EL406 plate washer. […] Subsequently, 30 μL of 1× Permeabilization buffer was added prior to centrifuging the cells and discarding the supernatant. Stained cells were resuspended in 30 μL of flow cytometry staining buffer (PBS+0.5% BSA) and analyzed using an Intellicyt Ique Plus flow cytometer.
# Sequence of Helios (Q9UKS7 whole entry): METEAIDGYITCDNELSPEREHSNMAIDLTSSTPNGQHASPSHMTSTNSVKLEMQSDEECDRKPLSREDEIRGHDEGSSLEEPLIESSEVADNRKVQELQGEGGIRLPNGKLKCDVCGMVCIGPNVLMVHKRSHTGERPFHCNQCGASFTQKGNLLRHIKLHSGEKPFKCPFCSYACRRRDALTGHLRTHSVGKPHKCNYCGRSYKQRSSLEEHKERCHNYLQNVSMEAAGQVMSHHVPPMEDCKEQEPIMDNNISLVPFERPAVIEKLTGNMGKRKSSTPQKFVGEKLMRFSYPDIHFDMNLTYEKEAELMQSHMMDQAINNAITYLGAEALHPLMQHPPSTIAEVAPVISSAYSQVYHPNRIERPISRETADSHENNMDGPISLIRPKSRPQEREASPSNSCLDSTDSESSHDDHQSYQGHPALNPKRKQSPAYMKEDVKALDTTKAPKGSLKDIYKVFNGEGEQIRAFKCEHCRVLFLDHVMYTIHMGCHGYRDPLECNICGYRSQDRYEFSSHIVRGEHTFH
# Sequence of Helios (Q96SW2 whole entry): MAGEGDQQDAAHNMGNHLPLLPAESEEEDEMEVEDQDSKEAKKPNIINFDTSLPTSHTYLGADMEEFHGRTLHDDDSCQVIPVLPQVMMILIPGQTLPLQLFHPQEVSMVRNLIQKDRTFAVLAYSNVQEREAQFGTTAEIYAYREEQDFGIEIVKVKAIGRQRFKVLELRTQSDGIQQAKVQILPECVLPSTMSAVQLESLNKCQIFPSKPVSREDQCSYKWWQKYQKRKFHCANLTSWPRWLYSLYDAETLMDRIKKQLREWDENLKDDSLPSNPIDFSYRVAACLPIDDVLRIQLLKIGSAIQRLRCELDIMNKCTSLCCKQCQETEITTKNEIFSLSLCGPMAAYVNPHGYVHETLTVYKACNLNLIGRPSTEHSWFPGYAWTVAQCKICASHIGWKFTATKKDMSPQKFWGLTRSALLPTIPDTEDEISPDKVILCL
# Sequence of Helios (Q16531 whole entry partner): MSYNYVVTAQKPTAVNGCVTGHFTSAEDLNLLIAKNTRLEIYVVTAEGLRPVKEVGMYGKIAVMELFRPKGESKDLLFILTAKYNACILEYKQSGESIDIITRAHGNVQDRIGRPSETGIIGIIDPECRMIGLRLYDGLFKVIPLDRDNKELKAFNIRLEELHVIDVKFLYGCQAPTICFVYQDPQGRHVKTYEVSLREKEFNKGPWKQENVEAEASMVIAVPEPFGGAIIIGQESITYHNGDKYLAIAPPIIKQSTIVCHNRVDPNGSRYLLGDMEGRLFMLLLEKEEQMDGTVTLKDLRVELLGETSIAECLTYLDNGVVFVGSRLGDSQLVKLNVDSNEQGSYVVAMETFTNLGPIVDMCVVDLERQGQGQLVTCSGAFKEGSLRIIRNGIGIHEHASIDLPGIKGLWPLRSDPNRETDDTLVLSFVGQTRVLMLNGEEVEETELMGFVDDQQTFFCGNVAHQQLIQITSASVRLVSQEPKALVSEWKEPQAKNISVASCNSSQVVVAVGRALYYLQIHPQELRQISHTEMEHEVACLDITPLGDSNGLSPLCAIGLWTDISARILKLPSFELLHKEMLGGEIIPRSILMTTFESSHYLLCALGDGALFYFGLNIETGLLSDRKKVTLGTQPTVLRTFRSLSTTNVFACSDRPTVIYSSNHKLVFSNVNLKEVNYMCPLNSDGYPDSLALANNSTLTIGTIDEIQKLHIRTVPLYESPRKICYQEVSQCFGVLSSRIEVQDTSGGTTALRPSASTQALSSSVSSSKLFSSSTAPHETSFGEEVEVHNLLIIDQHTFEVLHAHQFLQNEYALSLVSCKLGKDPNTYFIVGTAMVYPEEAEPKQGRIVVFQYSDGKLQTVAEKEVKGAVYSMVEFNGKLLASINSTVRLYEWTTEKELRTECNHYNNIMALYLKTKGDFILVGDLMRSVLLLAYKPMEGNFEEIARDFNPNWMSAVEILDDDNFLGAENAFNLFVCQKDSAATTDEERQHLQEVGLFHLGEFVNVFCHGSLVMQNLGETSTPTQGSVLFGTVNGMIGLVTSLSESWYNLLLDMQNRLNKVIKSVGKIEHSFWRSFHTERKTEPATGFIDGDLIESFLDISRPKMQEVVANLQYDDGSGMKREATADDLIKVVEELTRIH
row,SMILES,DC50
1,"O=C1CCC(N2Cc3cc(-c4cc(CN5CCC5COc5ccc(F)cc5)ccn4)ccc3C2=O)C(=O)N1 (stereo not shown) [Example 192, 3-(5-(4-((2-((4-fluorophenoxy)methyl)azetidin-1-yl)methyl)pyridin-2-yl)-1-oxoisoindolin-2-yl) piperidine-2,6-dione]",7.7 nM
2,"O=C1CC[C@H](N2Cc3cc(-c4nccc(CN5CC6CCCC6C5)c4F)ccc3C2=O)C(=O)N1 (stereo partly drawn) [Example 155, (3S)-3-(5-(3-fluoro-4-((hexahydrocyclopenta[c]pyrrol-2(1H)-yl)methyl)pyridin-2-yl)-1-oxoisoindolin-2-yl)piperidine-2,6-dione]",10.9 nM
3,"O=C1CCC(N2Cc3cc(-c4cc(CN5CC6(CCC6)C5)c(F)cn4)ccc3C2=O)C(=O)N1 (stereo not shown) [Example 93, 3-(5-(4-((2-azaspiro[3.3]heptan-2-yl)methyl)-5-fluoropyridin-2-yl)-1-oxoisoindolin-2-yl) piperidine-2,6-dione]",1.7 nM
4,"O=C1CCC(N2Cc3c(ccc(-c4nccc(CN5CCc6c(ccnc6Cl)C5)c4F)c3F)C2=O)C(=O)N1 (stereo not shown) [Example 283, 3-(5-(4-((5-chloro-3,4-dihydro-2,6-naphthyridin-2(1H)-yl)methyl)-3-fluoropyridin-2-yl)-4-fluoro-1-oxoisoindolin-2-yl) piperidine-2,6-dione]",≥ 10000 nM
5,"O=C1CCC(N2Cc3cc(-c4cc(CN5CC6(CCC6)C5)c(C(F)(F)F)cn4)ccc3C2=O)C(=O)N1 (stereo not shown) [Example 180, 3-(5-(4-((2-azaspiro[3.3]heptan-2-yl)methyl)-5-(trifluoromethyl)pyridin-2-yl)-1-oxoisoindolin-2-yl)piperidine-2,6-dione]",≥ 10000 nM
6,"O=C1CCC(N2Cc3cc(-c4nccc(CN5CC6(CCC6)C5)c4F)ccc3C2=O)C(=O)N1 (stereo not shown) [Example 88, 3-(5-(4-((2-azaspiro[3.3]heptan-2-yl)methyl)-3-fluoropyridin-2-yl)-1-oxoisoindolin-2-yl)piperidine-2,6-dione]",3.4 nM
7,"CN(C1CN(Cc2ccnc(-c3ccc4c(c3)CN([C@H]3CCC(=O)NC3=O)C4=O)c2)C1)S(C)(=O)=O [Example 161, (S)—N-(1-((2-(2-(2,6-dioxopiperidin-3-yl)-1-oxoisoindolin-5-yl)pyridin-4-yl)methyl)azetidin-3-yl)-N-methylmethanesulfonamide]",223 nM
8,"CC1=CC2CN(Cc3ccnc(-c4ccc5c(c4)CN([C@H]4CCC(=O)NC4=O)C5=O)c3)CC2C1 (stereo partly drawn) [Example 148, (3S)-3-(5-(4-((5-methyl-3,3a,4,6a-tetrahydrocyclopenta[c]pyrrol-2(1H)-yl)methyl)pyridin-2-yl)-1-oxoisoindolin-2-yl)piperidine-2,6-dione]",3.7 nM
9,"CC(C)(O)[C@H]1CCN(Cc2ccnc(-c3ccc4c(c3F)CN(C3CCC(=O)NC3=O)C4=O)c2F)C1 (stereo partly drawn) [Example 279, 3-(4-fluoro-5-(3-fluoro-4-(((S)-3-(2-hydroxypropan-2-yl)pyrrolidin-1-yl)methyl)pyridin-2-yl)-1-oxoisoindolin-2-yl)piperidine-2,6-dione]",34.3 nM
10,"O=C1CCC(N2Cc3cc(-c4nccc(CN5CCC(O)(C(F)(F)F)CC5)c4F)ccc3C2=O)C(=O)N1 (stereo not shown) [Example 209, 3-(5-(3-fluoro-4-((4-hydroxy-4-(trifluoromethyl)piperidin-1-yl)methyl)pyridin-2-yl)-1-oxoisoindolin-2-yl)piperidine-2,6-dione]",≥ 10000 nM
11,"CC1(F)CCN(Cc2ccnc(-c3ccc4c(c3)CN(C3CCC(=O)NC3=O)C4=O)c2F)CC1 (stereo not shown) [Example 198, 3-(5-(3-fluoro-4-((4-fluoro-4-methylpiperidin-1-yl)methyl)pyridin-2-yl)-1-oxoisoindolin-2-yl)piperidine-2,6-dione]",51.9 nM
12,"O=C1CC[C@H](N2Cc3cc(-c4cc(CN5C[C@H]6COC[C@H]6C5)ccn4)ccc3C2=O)C(=O)N1 [Example 152, (S)-3-(1-oxo-5-(4-(((3aR,6aS)-tetrahydro-1H-furo[3,4-c]pyrrol-5(3H)-yl)methyl)pyridin-2-yl)isoindolin-2-yl)piperidine-2,6-dione]",18.8 nM
13,"CC(C)(O)C1CN(Cc2ccnc(-c3ccc4c(c3)CN(C3CCC(=O)NC3=O)C4=O)c2F)C1 (stereo not shown) [Example 89, 3-(5-(3-fluoro-4-((3-(2-hydroxypropan-2-yl)azetidin-1-yl)methyl)pyridin-2-yl)-1-oxoisoindolin-2-yl)piperidine-2,6-dione]",18.4 nM
14,"O=C1CCC(N2Cc3cc(-c4nccc(CN5CCCC(O)(c6ccccc6)C5)c4F)ccc3C2=O)C(=O)N1 (stereo not shown) [Example 250, 3-(5-(3-fluoro-4-((3-hydroxy-3-phenylpiperidin-1-yl)methyl)pyridin-2-yl)-1-oxoisoindolin-2-yl)piperidine-2,6-dione]",≥ 10000 nM
15,"O=C1CCC(N2Cc3cc(-c4nccc(CN5CCc6c(ccnc6Cl)C5)c4F)ccc3C2=O)C(=O)N1 (stereo not shown) [Example 267, 3-(5-(4-((5-chloro-3,4-dihydro-2,6-naphthyridin-2(1H)-yl)methyl)-3-fluoropyridin-2-yl)-1-oxoisoindolin-2-yl)piperidine-2,6-dione]",≥ 10000 nM
16,"O=C1CCC(N2Cc3cc(-c4cc(CN5CC(CNC(=O)c6ccccc6)C5)ccn4)ccc3C2=O)C(=O)N1 (stereo not shown) [Example 159, N-((1-((2-(2-(2,6-dioxopiperidin-3-yl)-1-oxoisoindolin-5-yl)pyridin-4-yl)methyl)azetidin-3-yl)methyl)benzamide]",14.6 nM
17,"O=C1CCC(N2Cc3cc(-c4nccc(CN5Cc6ccc(Cl)cc6C5)c4F)ccc3C2=O)C(=O)N1 (stereo not shown) [Example 187, 3-(5-(4-((5-chloroisoindolin-2-yl)methyl)-3-fluoropyridin-2-yl)-1-oxoisoindolin-2-yl)piperidine-2,6-dione]",≥ 10000 nM
18,"O=C1CCC(N2Cc3cc(-c4nccc(CN5CCCC(F)C5)c4F)ccc3C2=O)C(=O)N1 (stereo not shown) [Example 205, 3-(5-(3-fluoro-4-((3-fluoropiperidin-1-yl)methyl)pyridin-2-yl)-1-oxoisoindolin-2-yl)piperidine-2,6-dione]",≥ 10000 nM
19,"O=C1CCC(N2Cc3c(ccc(-c4nccc(CN5CCC(O)(c6ccccc6)CC5)c4F)c3F)C2=O)C(=O)N1 (stereo not shown) [Example 280, 3-(4-fluoro-5-(3-fluoro-4-((4-hydroxy-4-phenylpiperidin-1-yl)methyl)pyridin-2-yl)-1-oxoisoindolin-2-yl)piperidine-2,6-dione]",≥ 10000 nM
20,"CC(O)C1CCN(Cc2ccnc(-c3ccc4c(c3)CN(C3CCC(=O)NC3=O)C4=O)c2F)C1 (stereo not shown) [Example 112, 3-(5-(3-fluoro-4-((3-(1-hydroxyethyl)pyrrolidin-1-yl)methyl)pyridin-2-yl)-1-oxoisoindolin-2-yl)piperidine-2,6-dione]",9.5 nM
21,"C[C@@](O)(c1ccccc1)[C@H]1CCCN1Cc1ccnc(-c2ccc3c(c2)CN(C2CCC(=O)NC2=O)C3=O)c1F (stereo partly drawn) [Example 217, 3-(5-(3-fluoro-4-(((R)-2-((R)-1-hydroxy-1-phenylethyl)pyrrolidin-1-yl)methyl)pyridin-2-yl)-1-oxoisoindolin-2-yl)piperidine-2,6-dione]",390 nM
22,"CC1(C)C2CN(Cc3ccnc(-c4ccc5c(c4)CN(C4CCC(=O)NC4=O)C5=O)c3F)CC21 (stereo not shown) [Example 206, 3-(5-(4-((6,6-dimethyl-3-azabicyclo[3.1.0]hexan-3-yl)methyl)-3-fluoropyridin-2-yl)-1-oxoisoindolin-2-yl)piperidine-2,6-dione]",11.1 nM
23,"O=C1CCC(N2Cc3cc(-c4nccc(CN5CCc6cccc(Cl)c6C5)c4F)ccc3C2=O)C(=O)N1 (stereo not shown) [Example 268, 3-(5-(4-((8-chloro-3,4-dihydroisoquinolin-2(1H)-yl)methyl)-3-fluoropyridin-2-yl)-1-oxoisoindolin-2-yl)piperidine-2,6-dione]",≥ 10000 nM
24,"CC(C)(O)C1CN(Cc2ccnc(-c3ccc4c(c3F)CN(C3CCC(=O)NC3=O)C4=O)c2F)C1 (stereo not shown) [Example 281, 3-(4-fluoro-5-(3-fluoro-4-((3-(2-hydroxypropan-2-yl)azetidin-1-yl)methyl)pyridin-2-yl)-1-oxoisoindolin-2-yl)piperidine-2,6-dione]",22.1 nM
25,"COc1cc(CN2CCC(C3CC3)C2)cc(-c2ccc3c(c2)CN(C2CCC(=O)NC2=O)C3=O)n1 (stereo not shown) [Example 175, 3-(5-(4-((3-cyclopropylpyrrolidin-1-yl)methyl)-6-methoxypyridin-2-yl)-1-oxoisoindolin-2-yl)piperidine-2,6-dione]",0.2 nM
26,"COCC1CCCN(Cc2ccnc(-c3ccc4c(c3)CN(C3CCC(=O)NC3=O)C4=O)c2)C1 (stereo not shown) [Example 99, 3-(5-(4-((3-(methoxymethyl)piperidin-1-yl)methyl)pyridin-2-yl)-1-oxoisoindolin-2-yl)piperidine-2,6-dione]",2 nM
27,"O=C1CCC(N2Cc3cc(-c4cc(CN5CC[C@H](CO)C5)ccn4)ccc3C2=O)C(=O)N1 (stereo partly drawn) [Example 105, 3-(5-(4-(((S)-3-(hydroxymethyl)pyrrolidin-1-yl)methyl)pyridin-2-yl)-1-oxoisoindolin-2-yl) piperidine-2,6-dione]",0.4 nM
28,"CC(C)(C)OC(=O)N1CC2CCCN(Cc3ccnc(-c4ccc5c(c4)CN(C4CCC(=O)NC4=O)C5=O)c3F)C2C1 (stereo not shown) [Example 204, tert-butyl 1-((2-(2-(2,6-dioxopiperidin-3-yl)-1-oxoisoindolin-5-yl)-3-fluoropyridin-4-yl)methyl) octahydro-6H-pyrrolo[3,4-b]pyridine-6-carboxylate]",≥ 10000 nM
